Key:
[1] = tested on: Human Rhinovirus serotype 1A; assay: Cell Culture 3C-Protease Activity Assay (protection of rhinovirus-infected cells); format: cell-based; settings: for IC50: HeLa-H1 cells infected with Human Rhinovirus serotype 1A, 48 hours, alamarBlue cell survival, dilution series 250-0.98 μM, several values per compound = repeat determinations
Procedure: (§1) In this assay, 96 well micro titer plates were seeded with 10^4 HeLa-H1 (ATCC) cells per well and incubated in DMEM+10% FBS (Gibco) for 24 hours at 37° C., saturated humidity and 5% CO2. Human Rhinovirus serotype 1A (ATCC) were titered to produce a 30% cell kill and added to some wells of a 96 well plate, other wells were mock infected with media only, followed by incubation at 33° C., saturated humidity and 5% CO2 for 1 hour. Compounds were dissolved in DMSO, diluted in DMEM and added in a 9 step 2-fold dilution series (250, 125, 62.5, 31.25, 15.63, 7.81, 3.91, 1.95, 0.98 μM) 1 hour after virus treatment. Plates were incubated for 48 hours at 33° C., saturated humidity and 5% CO2 in a final volume of 100 μL FBS free DMEM. Cell survival was measured by the addition of 10 μL of alamarBlue™ (BioSource), incubation at 33° C. for 45 minutes and reading in a fluorescence plate reader, excitation: 544 nm, emission: 590 nm. The inhibitory concentration 50% (IC50) was calculated as the concentration of compound that increased the percentage fluorescence in the compound-treated virus-infected cells to 50% of that produced by compound-free, uninfected cells. The toxicity concentration 50% (TC50) was calculated as the concentration of compound that decreased the percentage fluorescence in the compound-treated, uninfected cells to 50% of the compound-free, uninfected cells. The therapeutic index (Ti) was calculated by dividing the […].

HeLa-H1 cells = assay: Toxicity in uninfected cells of the cell culture 3C-protease assay; format: cell-based; parameters: key to TC50: —: the hyphens indicate no value was able to be calculated (i.e. the drug response did not cross the 50% point); settings: compound-treated uninfected HeLa-H1 cells, 48 hours, alamarBlue, dilution series 250-0.98 μM, several values per compound = repeat determinations; for CC50: read-out: TC50 (the source's name)
Procedure: as §1

[2] = target: T1, human recombinant caspase-3 (Homo sapiens, UniProt P42574); assay: In vitro high throughput caspase-3 assay; format: biochemical; settings: for Ki: calculated from IC50 according to Equation 1, read-out: Ki(app); for IC50: fixed substrate concentration of 55 μM, inhibitors 75 to 0.067 μM in duplicate; for Percent Activity: percentage of the positive control, 20-250 μM test compound, lower = better inhibition, negative = better than control caspase inhibitor; for Caspase-3 Activity: relative activity as a fraction, values match Table II percent activity divided by 100
T1 construct: purchased Sigma
T1 sequence (P42574 29-175 limits assumed): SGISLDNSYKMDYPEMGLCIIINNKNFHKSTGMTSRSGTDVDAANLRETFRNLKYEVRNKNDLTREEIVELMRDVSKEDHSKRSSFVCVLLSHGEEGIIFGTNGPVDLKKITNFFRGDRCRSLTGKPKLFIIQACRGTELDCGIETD
T1 sequence (P42574 176-277 limits assumed): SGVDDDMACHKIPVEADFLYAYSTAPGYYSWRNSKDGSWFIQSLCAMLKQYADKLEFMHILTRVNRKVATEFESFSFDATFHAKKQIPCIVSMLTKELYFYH
Procedure: Purified Human recombinant caspase-3, fluorescence labeled substrate (Acetyl-Asp-Glu-Val-Asp-7-amino-4-trifluoromethyl coumarin), and known inhibitor (Z-Asp-Glu-Val-Asp-fluoromethyl ketone) can be purchased from Sigma Chemical Co. (St. Louis, Mo.). The enzyme reactions are carried out at room temperature in 10 mM PIPES pH=7.4, 2 mM EDTA, 0.1% CHAPS, 5 mM DTT reaction buffer. Each well on the 96 well plate contains the above reaction buffer plus 55 μM fluorescence labeled substrate, 0.125 μg caspase-3, and 20-250 μM test compound. Positive and negative controls are present on each assay plate. A standard curve is generated using 7-amino-4-trifluoromethyl coumarin in the concentration range from 0.15 μM to 5.0 μM. The reactions are preferably read every 0.5 hours using a fluorescence microtiter plate reader set for 390 nm excitation and 538 nm emission for the first 4 hours after which the plates are left at room temperature overnight. One reading is taken the next morning as a final measurement.
To determine the caspase inhibitory activity of these compounds, the in vitro high throughput caspase-3 assay presented herein was utilized. Purified human recombinant caspase-3, fluorescence labeled substrate (Acetyl-Asp-Glu-Val-Asp-7-amino-4-trifluoromethyl coumarin), and known inhibitor (Z-Asp-Glu-Val-Asp-fluoromethyl ketone) were purchased from Sigma. The enzyme reactions were carried out at room temperature in 10 mM PIPES pH=7.4, 2 mM EDTA, 0.1% CHAPS, 5 mM DTT reaction buffer. Each well on the 96 well plate contained the above reaction buffer plus 55 μM fluorescence labeled substrate, 0.125 μg caspase-3, and 20-250 μM test compound. Positive and negative controls were present on each assay plate. A standard curve was generated using 7-amino-4-trifluoromethyl coumarin in the concentration range from 0.15 μM to 5.0 μM. The reactions were read every 0.5 hours using a fluorescence microtiter plate reader set for 390 nm excitation and 538 nm emission for the first 4 hours after which the plates were left at room temperature overnight. One reading was taken the next morning as a final measurement.
Ki determinations were carried out using the above assay system. […] Ki(app) was calculated according to Equation 1: [formula]
The concentration of inhibitors ranged from 75 to 0.067 μM with each inhibitor concentration assayed in duplicate. The Km for the substrate was determined from a standard Lineweaver-Burke plot.

[3] = target: T2, Human Rhinovirus serotype 1A 3C Protease (Human rhinovirus 1A, UniProt P23008); assay: 3C Protease Biochemical Assay (FRET); settings: 30° C., 2-6uM substrate, 416 nM 3CP
T2 construct: used to clone the 3C Protease into the expression vector pET16-b; made in house; host or cells: E. coli BL21-DE3-pLys-S
Procedure: Human Rhinovirus serotype 1A (ATCC) was used to clone the 3C Protease into the expression vector pET16-b and transformed for production into the E. coli strain BL21-DE3-pLys-S. 3C Protease expression was induced with 1 mM IPTG at 25° C. and purified from the soluble protein extract by chromatography on a SourceQ (Pharmacia) followed by gel filtration. HRV 3CP activity was measured by fluorescence resonance energy transfer using a dimodified decapeptide substrate MOC-[…]DNP-NH2 (7-methoxy coumarin-4-acetic acid fluorochrome and dinitrophenol quencher) with a Km value of 16.8 μM. Inhibition was measured as a change in initial velocity (V0) as a function of inhibitor (I) concentration and substrate (S) concentration. […] Fluorescence was monitored by excitation at 328 nm and emission at 393 nm with 10 nm cutoffs. Data were analyzed with the nonlinear regression analysis program EnzFitter (BioSoft) with the equation:
Ki=(I/((VmaxxS)/V0)/Ks)−I−S
Substrate concentrations used were lower than the Km of the substrate (16.8 uM) so no corrections for an S/Km term were used.

TPCK-trypsin = target: T3, TPCK-trypsin (Bos taurus, UniProt P00760); assay: Cross-reactivity protease inhibition assay (QuantiCleave), trypsin; format: biochemical; settings: ratio Abs450nm with inhibitor / without inhibitor; 100 μM compound
T3 sequence (P00760 24-246): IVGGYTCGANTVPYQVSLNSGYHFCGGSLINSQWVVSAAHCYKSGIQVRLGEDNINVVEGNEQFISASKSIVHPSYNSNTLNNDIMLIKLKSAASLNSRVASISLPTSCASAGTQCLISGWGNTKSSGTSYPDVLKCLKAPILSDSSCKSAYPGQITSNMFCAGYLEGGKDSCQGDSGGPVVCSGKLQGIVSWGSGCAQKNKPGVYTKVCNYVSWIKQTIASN
Procedure: (§2) To evaluate whether inhibition was specific to caspase-3 or applicable to other cysteine proteases or other proteases, inhibitor molecules were assayed for their capacity to inhibit additional non-caspase proteases. Three proteases, TPCK-trypsin, α-chymotrypsin and papain, were used to test for protease inhibition cross-reactivity. Protease inhibition assays were performed in 96-well flat-bottomed micro-titer plates with the QuantiCleave™ protease assay kit (Pierce, Rockford, Ill.) according to the manufacturer's instructions. Briefly, the assay conditions contained 100 μM compound, 2 mg/mL of succinylated-casein and 0.15 mg/mL of the protease. The assay incubated in a final volume of 150 μLs 0.05 M sodium borate pH 8.5 buffer (NaB-buffer) for 20 minutes at 25° C. After the protease reaction, 50 μLs of a trinitrobenzenesulfonic acid (TNBSA) solution (1:15, TNBSA:NaB-buffer) was added to each reaction and further incubated for 20 minutes at 25° C. Absorbance values at 450 nm were read in an Emax (Molecular Devices, Sunnyvale, Calif.) micro plate reader. Appropriate controls were performed, including known inhibitors (soybean trypsin inhibitor, aminoethyl-benzenesulfonic acid and leupeptin) for the proteases.
(§3) Relative activities in the presence of inhibitor were calculated by taking the ratio of absorbance for a reaction containing inhibitor to the absorbance for a reaction without inhibitor. Significant inhibition was determined by testing the null hypothesis of equivalence between the mean absorbance of reactions containing inhibitor and the mean absorbance of reactions without inhibitor (2 tailed t-test, 2 df).
(§4) The results are given in Table V in terms of cross-reactivities, relative activity and significant difference of 100 μM protease inhibitors on the proteases trypsin, chymotrypsin and papain.

α-chymotrypsin = α-chymotrypsin (Bos taurus, UniProt P00766, DEL14-15/DEL147-148); assay: Cross-reactivity protease inhibition assay (QuantiCleave), chymotrypsin; format: biochemical; settings: ratio Abs450nm with inhibitor / without inhibitor; 100 μM compound
Procedure: as §2, §3, §4

papain = target: T4, papain (Carica papaya, UniProt P00784); assay: Cross-reactivity protease inhibition assay (QuantiCleave), papain; format: biochemical; settings: ratio Abs450nm with inhibitor / without inhibitor; 100 μM compound
T4 sequence (P00784 134-345): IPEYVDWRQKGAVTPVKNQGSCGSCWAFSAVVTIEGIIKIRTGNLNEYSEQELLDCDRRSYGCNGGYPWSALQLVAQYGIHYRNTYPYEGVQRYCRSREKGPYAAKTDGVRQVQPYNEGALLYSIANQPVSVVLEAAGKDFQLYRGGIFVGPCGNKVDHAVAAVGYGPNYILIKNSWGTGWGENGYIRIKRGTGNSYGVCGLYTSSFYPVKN
Procedure: as §2, §3, §4

cysteine protease = assay: Cysteine protease inhibitory activity, no method given

T2 sequence (P23008 1515-1697): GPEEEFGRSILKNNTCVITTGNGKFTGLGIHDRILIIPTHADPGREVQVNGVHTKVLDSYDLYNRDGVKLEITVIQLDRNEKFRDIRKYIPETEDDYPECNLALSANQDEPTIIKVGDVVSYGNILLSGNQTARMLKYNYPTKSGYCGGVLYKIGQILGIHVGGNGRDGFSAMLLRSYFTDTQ

**Q.** Which results are given for `O=C(O)CCNc1ccc(O)c2c1C(=O)c1ccccc1C2=O` [cpi0136.0012]?
**A.** IC50 [1]: 30 µM; CC50 (HeLa-H1 cells): > 30 µM; Ki [2]: 1.24 µM; IC50 [2]: 7.82 µM; Percent Activity [2]: 7.846%

**Q.** With `COC(=O)CCNc1ccc(O)c2c1C(=O)c1ccccc1C2=O` [cpi0136.NS131731] as the molecule, how does the TC50 (HeLa-H1 cells) read?
**A.** The TC50 was “—, and —”.

**Q.** `CCn1cc(C(=O)O)c(=O)c2ccc(C)nc21` [cpi0176, nalidixic acid, reference compound] was tested. Which “potency as an antirhinoviral agent relative to potency as an antibiotic agent” value [1] did it give?
**A.** Its value is 10 fold.

**Q.** What about the TC50 (HeLa-H1 cells) of the same molecule?
**A.** Its TC50 is “—, and —”.

**Q.** And the Ki [3]?
**A.** Its Ki is 195 µM.

**Q.** Which results are given for `O=C1C=CC(=O)c2c(O)ccc(O)c21` [cpi0131]?
**A.** Percent Activity [2]: −1.78%; Caspase-3 Activity [2]: −0.0178; TPCK-Trypsin Activity (TPCK-trypsin): 0.819; α-Chymotrypsin Activity (α-chymotrypsin): 0.915; Papain Activity (papain): 0.505; Ki [3]: 307 µM

**Q.** `CC(=O)N[C@@H](CC(C)C)C(=O)N[C@@H](CC(C)C)C(=O)N[C@H](C=O)CCCNC(=N)N` [Leupeptin, leupeptin, reference compound] was tested. Which “Papain Activity” value (papain) did it give?
**A.** Its value is 0.095.

**Q.** Which “cysteine protease inhibitory activity” value (cysteine protease) does the source give for `CC(C)=CC[C@@H](O)C1=CC(=O)c2c(O)ccc(O)c2C1=O` [shikonin] here?
**A.** The value was “exhibit cysteine protease inhibitory activity”.

**Q.** For `COc1cccc2occc(=O)c12` [cpi0409], which TC50 (HeLa-H1 cells) is on record?
**A.** Its TC50 is “—, and —”.

**Q.** How did the IC50 [1] turn out when `O=C(O)CN(CC(=O)O)Cc1cc2c(c(O)c1O)C(=O)c1ccccc1C2=O` [cpi0136.0009] was run?
**A.** Its IC50 is 0.2 µM.

**Q.** And the CC50 (HeLa-H1 cells)?
**A.** Its CC50 is over 30 µM.

**Q.** And the Ki [2]?
**A.** The Ki was 6.16 µM.

**Q.** And the IC50 [2]?
**A.** The IC50 was 38.8 µM.

**Q.** What about the “Percent Activity” value [2] of the same molecule?
**A.** Its value is −0.4239%.

**Q.** For `CC(C)=CCC1=C(O)C(=O)c2ccccc2C1=O` [cpi0133], which “Percent Activity” value [2] is on record?
**A.** The value was 48.29%.

**Q.** What about the “Caspase-3 Activity” value [2] of the same molecule?
**A.** The value was 0.483.

**Q.** What about the “TPCK-Trypsin Activity” value (TPCK-trypsin) of the same molecule?
**A.** Its value is 1.196.

**Q.** And the “α-Chymotrypsin Activity” value (α-chymotrypsin)?
**A.** Its value is 1.081.

**Q.** What about the “Papain Activity” value (papain) of the same molecule?
**A.** The value was 0.897.

**Q.** How did the “α-Chymotrypsin Activity” value (α-chymotrypsin) turn out when `NCCc1ccc(S(=O)(=O)F)cc1` [AEBSF, reference compound] was run?
**A.** The value was 0.466.

**Q.** What does the source list for `O=c1cc(-c2ccccc2)oc2cc(O)cc(O)c12` [cpi0124]?
**A.** Percent Activity [2]: 51.49%; Caspase-3 Activity [2]: 0.515; TPCK-Trypsin Activity (TPCK-trypsin): 1.075; α-Chymotrypsin Activity (α-chymotrypsin): 1.029; Papain Activity (papain): 0.445

**Q.** How did the “cysteine protease inhibitory activity” value (cysteine protease) turn out when `CC(C)=CC[C@H](O)C1=CC(=O)c2c(O)ccc(O)c2C1=O` [alkannin] was run?
**A.** The value was “exhibit cysteine protease inhibitory activity”.

B1: STI: Soybean Trypsin Inhibitor, known inhibitor control (protein, UniProt P01070 25-205, looked up)
Trypsin inhibitor A: DFVLDNEGNPLENGGTYYILSDITAFGGIRAAPTGNERCPLTVVQSRNELDKGIGTIISSPYRIRFIAEGHPLSLKFDSFAVIMLCVGIPTEWSVVEDLPEGPAVKIGENKDAMDGWFRLERVSDDEFNNYKLVFCPQQAEDDKCGDIGISIDHDDGTRRLVVSKNKPLVVQFQKLDKESL
**Q.** For B1, which “TPCK-Trypsin Activity” value (TPCK-trypsin) is on record?
**A.** The value was 0.017.
